We go through three compounds from patent US4684742A, “Process for the production of 2-(2-halogenoethylamino)-2-oxo-3-(2-halogenoethyl)-1.3.2.-oxazaphosphori nanes” (Polska Akademia Nauk-Centrum Baden Molekularnych i …, priority 1984, dated 1987).

Data set [1] in a line: Toxicity (LD50) in healthy CD2F1 female mice, 14 days observation. Particulars: mouse, in vivo; for selectivity ratio: TI from LD50 (healthy CD2F1 mice) and ED50 (L1210 leukemic CD2F1 mice), read-out: Therapeutic index; for LD50 at 336 h: healthy CD2F1 female mice, 14 days observation period. The procedure:
(§1) Antileukemic activity against L1210, toxicity and therapeutic
(§2) anlysis. Toxicity (LD50) were determined in healthy CD2F1 femal
mice during 14 days observation period. TI = LD50

The test system of data set [2] is L1210. Briefly: Antileukemic activity in L1210 leukemic CD2F1 female mice (increase in life span). Particulars: for ED50: Mus musculus, L1210 leukemic CD2F1 female mice, estimated by regression analysis, read-out: ED50 (dose producing 50% increase in life span of treated mice over control); for advantage over parent ifosfamide: racemic or enantiomeric compounds, versus ifosfamide, conclusion from Table 1. The data set is classed as in vivo. The method, then:
as §1
Antileukemic activity was evaluated in L1210 leukemic CD2F1 female
mice ED50 doses producing the 50% increase in life span of treated
mice over control were estimated from experimental data by regression
as §2

For orientation: LD50 means the dose expected to kill half of the subjects tested. A higher LD50 goes with a less toxic substance. As a reminder, the ED50 is the dose at which the effect has come halfway, by size or by number of responders. Turning to `O=P1(NCCBr)OCCCN1CCBr` (centres unmarked) [X=Br, Y=Br, 2-(2-Bromoethylamino)-2-oxo-3-(2-bromoethyl)-1.3.2-oxazaphosphorinane], in data set [1], the selectivity ratio stood at 10.7 and the LD50 at 336 h came to 459 mg/kg. In data set [2], the ED50 is 43 mg/kg and the “advantage over parent ifosfamide” value is recorded as “more advantageous than parent ifosfamide”.
In the case of `O=P1(NCCCl)OCCCN1CCCl` (centres unmarked) [X=Cl, Y=Cl, 2-(2-chloroethylamino)-2-oxo-3-(2-chloroethyl)-1.3.2-oxazaphosphorinane, reference compound], in data set [1], the selectivity ratio turned out to be 6.6 and the LD50 at 336 h stood at 680 mg/kg. Besides, the ED50 in data set [2] is 103 mg/kg.
As for `O=P1(NCCCl)OCCCN1CCBr` (centres unmarked) [X=Cl, Y=Br, 2-(2-Chloroethylamino)-2-oxo-3-(2-bromoethyl)-1.3.2-oxazaphosphorinane], in data set [1], the selectivity ratio stood at 11.6 and the LD50 at 336 h was found to be 512 mg/kg. Further, in data set [2], the ED50 was 44 mg/kg and the “advantage over parent ifosfamide” value is “more advantageous than parent ifosfamide”.
